Data from the supplement of paper PMC10307832.

Tests used:
Test in all cases: relative viability (nuclei count vs DMSO), 5 days (fraction); higher = more cells survive
[1] = test system: NCI-H2023
How it was run: (§1)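 Each reported value is a median over duplicate plates. It expresses relative viability: treated-well nuclei count divided by vehicle-well nuclei count. Lung cancer cell lines in 1536-well plates were dosed by pin tool a day after seeding, alone with one drug or with a fixed anchor-drug dose plus five library-drug doses (not always all listed) in √10 steps, and nuclei were counted after 5 days.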

[2] = test system: EPLC-272H
How it was run: as §1

[3] = test system: LCLC-97TM1
How it was run: as §1

[4] = test system: NCI-H1734
How it was run: as §1

[5] = test system: NCI-H1792
How it was run: as §1

[6] = test system: A-427
How it was run: as §1

[7] = test system: NCI-H838
How it was run: as §1

[8] = test system: NCI-H2347
How it was run: as §1

[9] = test system: NCI-H520
How it was run: as §1

[10] = test system: HCC-44
How it was run: as §1

[11] = test system: SW 1573
How it was run: as §1

Work on `Cc1cn(-c2cc(NC(=O)c3ccc(C)c(Nc4nccc(-c5cccnc5)n4)c3)cc(C(F)(F)F)c2)cn1` [Nilotinib] + Cc1nc(NC(=O)N2CCC[C@H]2C(N)=O)sc1-c1ccnc(C(C)(C)C(F)(F)F)c1 [Alpelisib] (partner 2 µM) yielded a relative viability ([1]; first compound 0.001 µM) of 0.513, a relative viability ([1]; first compound 0.003162 µM) of 0.655 and a relative viability ([1]; first compound 0.01 µM) of 0.654. It also gave a relative viability ([1]; first compound 0.03162 µM) of 0.558, a relative viability ([1]; first compound 0.1 µM) of 0.478 and a relative viability ([2]; first compound 0.003162 µM) of 1.01. For the same molecule, the relative viability ([2]; first compound 0.03162 µM) was 0.894, the relative viability ([2]; first compound 0.1 µM) was 0.763 and the relative viability ([3]; first compound 0.003162 µM) was 0.311. The relative viability ([3]; first compound 0.01 µM) was 0.279, the relative viability ([3]; first compound 0.03162 µM) was 0.22 and the relative viability ([3]; first compound 0.1 µM) was 0.275. It also gave a relative viability ([4]; first compound 0.001 µM) of 0.692, a relative viability ([4]; first compound 0.003162 µM) of 0.638 and a relative viability ([4]; first compound 0.01 µM) of 0.682. For the same molecule, the relative viability ([4]; first compound 0.03162 µM) was 0.551, the relative viability ([4]; first compound 0.1 µM) was 0.507 and the relative viability ([5]; first compound 0.001 µM) was 0.57. For the same molecule, the relative viability ([5]; first compound 0.01 µM) was 0.718, the relative viability ([5]; first compound 0.1 µM) was 1.01 and the relative viability ([6]; first compound 0.001 µM) was 1.07. For the same molecule, the relative viability ([6]; first compound 0.01 µM) was 1.13, the relative viability ([6]; first compound 0.03162 µM) was 1.06 and the relative viability ([6]; first compound 0.1 µM) was 0.808. The relative viability ([7]; first compound 0.001 µM) was 1.06, the relative viability ([7]; first compound 0.003162 µM) was 1.31 and the relative viability ([7]; first compound 0.01 µM) was 1.26. It also gave a relative viability ([7]; first compound 0.1 µM) of 1.09, a relative viability ([8]; first compound 0.001 µM) of 1.01 and a relative viability ([8]; first compound 0.003162 µM) of 1.12. For the same molecule, the relative viability ([8]; first compound 0.01 µM) was 1.03, the relative viability ([8]; first compound 0.03162 µM) was 0.981 and the relative viability ([8]; first compound 0.1 µM) was 1.01. The relative viability ([9]; first compound 0.001 µM) was 0.793, the relative viability ([9]; first compound 0.01 µM) was 0.986 and the relative viability ([9]; first compound 0.03162 µM) was 0.719. The relative viability ([9]; first compound 0.1 µM) was 1.03, the relative viability ([10]; first compound 0.001 µM) was 0.708 and the relative viability ([10]; first compound 0.003162 µM) was 0.939. The relative viability ([10]; first compound 0.01 µM) was 0.898, the relative viability ([10]; first compound 0.03162 µM) was 0.59 and the relative viability ([10]; first compound 0.1 µM) was 0.74. It also gave a relative viability ([11]; first compound 0.001 µM) of 0.867, a relative viability ([11]; first compound 0.003162 µM) of 0.764 and a relative viability ([11]; first compound 0.01 µM) of 0.92. It also gave a relative viability ([11]; first compound 0.03162 µM) of 0.594 and a relative viability ([11]; first compound 0.1 µM) of 0.682.
